Results published in patent publication US8906888B2, “Low-calcemic 16,23-diene 25-oxime analogs of 1α,25-dihydroxy vitamin D3” (Cytochroma Inc., priority 2005, dated 2014).

Assays:
[1] = biological target: T1, CYP27A1 (Homo sapiens, UniProt Q02318); assay: CYP27A1 enzyme assay; format: biochemical; conditions: read-out: IC50 in the inhibition of CYP27A1
T1 sequence (Q02318 34-531): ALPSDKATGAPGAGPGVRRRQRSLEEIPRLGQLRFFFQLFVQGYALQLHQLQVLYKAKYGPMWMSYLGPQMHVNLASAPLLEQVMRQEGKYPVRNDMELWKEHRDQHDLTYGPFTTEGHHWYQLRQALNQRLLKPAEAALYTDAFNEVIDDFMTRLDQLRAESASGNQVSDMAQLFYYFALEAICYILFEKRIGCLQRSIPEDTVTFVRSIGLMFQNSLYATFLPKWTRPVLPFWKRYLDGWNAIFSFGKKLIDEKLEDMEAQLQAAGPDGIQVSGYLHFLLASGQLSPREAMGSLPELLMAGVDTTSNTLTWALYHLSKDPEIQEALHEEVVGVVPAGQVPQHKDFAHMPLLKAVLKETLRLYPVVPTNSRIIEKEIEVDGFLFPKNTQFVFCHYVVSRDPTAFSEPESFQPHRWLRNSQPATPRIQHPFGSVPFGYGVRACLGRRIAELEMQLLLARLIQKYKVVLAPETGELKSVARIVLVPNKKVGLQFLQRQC

[2] = system: MCF-7 cells; assay: [3H]-Thymidine proliferation assay with MCF-7 cells; format: cell-based; conditions: breast cancer cells, 3 days, 3H-thymidine incorporation
Method: 1. Preparation of Cell Suspension. • When MCF-7 cells were 70-80% confluent, aspirated growth media. Washed the cells with 1×PBS. Trypsinized with trypsin-EDTA from the plate, collected cells from the tissue culture flask, centrifuged (500×g, 5 min) and resuspended in growth media.
2. Cell Plating. • Counted the cells and adjusted the cell density to 25,000/ml. Added 200 μl per well in a 96 well plate. Incubated plate for 24 h at 37° C. in a humidified atmosphere plus 5% CO2. Aspirated used media and replaced with 175 μl per well with proliferation media.
3. Substrate Addition. • Added 25 μl of compound (final concentration 10^−7 M, 5×10^−8 M, 10^−8 M, 5×10^−9 M, 10^−10 M or 0 M) into each designated well. Incubated plates for 3 days at 37° C. in a humidified atmosphere plus 5% CO2.
(§1) 4. ^3H-Thymidine Incorporation. • Added ^3H-thymidine at 0.02 μCi per well and incubated at 37° C. in a humidified atmosphere plus 5% CO2 for 6 h.
(§2) 5. Plate Harvesting. • Aspirated all media and washed cells with 1×PBS. Trypsinized cells for 30 min at 37° C. in a humidified atmosphere plus 5% CO2. Harvested cells onto a 96 well filter plate (Millipore) using a Tomtec Cell Harvestor, according to manufacturers instructions.
6. Scintillation Counting. • Added 25 μl of scintillation fluid per well. Counted the plate using a scintillation counter. Results: Compound (20R)-I(e) inhibited MCF-7 cell proliferation.

[3] = system: BxPC-3 cells; assay: [3H]-Thymidine proliferation assay with BxPC-3 cells; format: cell-based; conditions: pancreatic cancer cells, 3 days, 3H-thymidine incorporation
Method: 1. Preparation of Cell Suspension • When BxPC-3 cells were 70-80% confluent, aspirated media. Washed the cells with 1×PBS. Trypsinized with trypsin-EDTA from the plate, collected cells from the tissue culture flask, centrifuged (500×g, 5 min) and resuspended in media.
2. Cell Plating. • Counted the cells and adjusted the cell density to 2,000/ml. Added 200 μl per well in a 96 well plate. Incubated plate for 24 h at 37° C. in a humidified atmosphere plus 5% CO2. Aspirated used media and replaced with 175 μl per well with media.
3. Substrate Addition. • Added 25 μl of compound (final concentration 10^−7 M, 5×10^−8 M, 10^−8M, 5×10^−9 M, 10^−10 M or 0 M) into each designated well. Incubated plates for 3 days at 37° C. in a humidified atmosphere plus 5% CO2.
as §1, §2
6. Scintillation Counting. • Added 25 μl of scintillation fluid per well. Counted the plate using a scintillation counter. Results: Compound (20R)-I(e) inhibited BxPC-3 cell proliferation.

- IC50 [1]: > 1 µM
SMILES: C=C1/C(=C\C=C2/CCC[C@]3(C)C([C@H](C)C/C=C/C(=NOC)C(C)(C)C)=CC[C@@H]23)C[C@@H](O)C[C@@H]1O [(20R)-I(e)]
- Inhibition of MCF-7 cell proliferation [2]: inhibited
- Inhibition of BxPC-3 cell proliferation [3]: inhibited
